According to paper PMC4138991, “Building a Better Dynasore: The Dyngo Compounds Potently Inhibit Dynamin and Endocytosis” (Traffic (Copenhagen, Denmark), 2013):
Entries after “also recorded” stand apart in the source; their conditions may differ.

Columns and labels:
[1] = target: dynamin I binding to SH3 domains of grb2, amphiphysin I, endophilin I (Homo sapiens, UniProt Q05193); assay: Pull-down of dynamin I with SH3 domains; settings: 10, 40 and 100 µM 4a
Experimental: Recombinant human dynamin I was expressed in insect cells (SF21). Cells were lysed and sonicated in 20 mM HEPES buffer with 250 mM NaCl. The lysates were diluted in 20 mM HEPES buffer alone to obtain a final 50 mM NaCl concentration. This diluted lysate was used for pull-downs with 6 µg of GST-amphiphysin1 SH3, GST-endophilin SH3 or GST-grb2 SH3 (all recombinantly expressed in bacteria) immobilised on glutathione sepharose beads. Incubations were done in the presence or absence of 10, 40 and 100 µM 4a for 1 hr at 10°C. The GSH beads were then washed three times with ice cold PBS and the bound proteins were separated on 12% SDS-PAGE gels and visualised using Coomassie Blue.

[2] = system: cultured CGNs; assay: HRP labeling of endocytosis pathways (electron microscopy) in CGNs; type: cell-based, rat; settings: 30 μM, 15 min, 80 Hz 10 s
Experimental: Granule neuron cultures were prepared from the cerebella of 7‐day‐old rat pups as previously described 57. In all experiments, neurons were used between 8 and 10 days in vitro.
Granule neurons were processed for electron microscopy as previously described 40. Briefly, cells were transferred to incubation medium for 10 min and subsequently incubated with or without 30 μM 4a for 15 min. Cultures were next stimulated with 800 action potentials (80 Hz) in incubation medium supplemented with HRP (10 mg/mL) in the presence or absence of 4a. Cells were fixed in a 2% solution of glutaraldehyde in phosphate‐buffered saline for 30 min at 37°C directly after stimulation. After washing with 100 mM Tris (pH 7.4) cells were exposed to 0.1% diaminobenzidine and 0.2% H2O2 in 100 mM Tris. On development of color, cells were washed with 100 mM Tris and subsequently stained with 1% osmium tetroxide for 30 min. After washing, cells were post‐stained with 2% uranyl acetate for 15 min, then dehydrated using ethanol series and polypropylene oxide and embedded using Durcupan. Samples were sectioned, mounted on grids and viewed using a FEI Tecnai 12 transmission electron microscope. Intracellular structures that were less than 100 nm in diameter were arbitrarily designated to be synaptic vesicles, whereas larger structures were designated to be endosomes.

[3] = system: Calyx of Held; parameters: method as in PMID 18066059; settings: 100 μM, 5-min preincubation; cited from earlier work

dynamin I binding to SH3 domains of grb2, amphiphysin I, endophilin I, sequence (Q05193 whole entry, the tested form may be a part): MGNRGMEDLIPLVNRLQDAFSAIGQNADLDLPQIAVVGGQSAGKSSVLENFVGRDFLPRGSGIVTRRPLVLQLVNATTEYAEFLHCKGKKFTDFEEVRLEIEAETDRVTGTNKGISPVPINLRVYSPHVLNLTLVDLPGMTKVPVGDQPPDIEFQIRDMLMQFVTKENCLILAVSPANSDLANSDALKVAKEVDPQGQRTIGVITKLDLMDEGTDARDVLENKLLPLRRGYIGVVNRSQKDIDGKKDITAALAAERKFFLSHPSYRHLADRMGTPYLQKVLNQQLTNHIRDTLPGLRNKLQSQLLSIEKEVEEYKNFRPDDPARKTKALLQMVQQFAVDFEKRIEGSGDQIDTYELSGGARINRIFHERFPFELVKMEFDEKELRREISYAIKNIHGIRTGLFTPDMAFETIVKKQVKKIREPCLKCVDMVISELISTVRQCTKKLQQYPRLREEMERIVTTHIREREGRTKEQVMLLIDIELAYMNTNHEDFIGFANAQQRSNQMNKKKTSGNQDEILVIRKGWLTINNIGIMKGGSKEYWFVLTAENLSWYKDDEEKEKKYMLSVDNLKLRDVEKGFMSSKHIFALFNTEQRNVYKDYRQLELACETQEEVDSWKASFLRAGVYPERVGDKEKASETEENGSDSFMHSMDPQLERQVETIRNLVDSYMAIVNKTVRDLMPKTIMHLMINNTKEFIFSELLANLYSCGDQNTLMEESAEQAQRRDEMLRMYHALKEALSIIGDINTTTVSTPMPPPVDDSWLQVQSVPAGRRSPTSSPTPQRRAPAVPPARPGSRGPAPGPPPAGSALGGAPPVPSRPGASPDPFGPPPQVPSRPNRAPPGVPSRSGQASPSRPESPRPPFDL

O=C(N/N=C/c1cc(O)c(O)cc1O)c1cc2ccccc2cc1O [4a, (E)-3-Hydroxy-N'-(2,4,5-trihydroxybenzylidene) -2-naphthohydrazide]
effect on dynamin I binding to SH3 domains [1]: did not disrupt the binding; also recorded: no effect | number of HRP-labeled endosomes (ADBE) [2]: caused a decrease in the number | number of HRP-labeled synaptic vesicles (neuronal CME) [2]: significant reduction in the number of labeled synaptic vesicles

O=C(N/N=C/c1ccc(O)c(O)c1)c1cc2ccccc2cc1O [Dynasore, (E)-N'-(3,4-Dihydroxybenzylidene)-3-hydroxy-2-naphthohydrazide]
SVE at the Calyx of Held [3]: inhibit SVE
